Laboratory results published in patent EP0333831B1, “USE OF METALLOPORPHYRINS TO REVERSE THE TOXIC EFFECT OF TUMOR THERAPY” (priority 1987, dated 1989).

Experiments:
Format in all cases: in vivo, Sprague-Dawley rats
[1] = system: hepatic heme oxygenase; experiment: hepatic heme oxygenase activity in rats treated with doxorubicin, with or without SnPP; conditions: SnPP (50 µmol/kg b.w.) one day prior to doxorubicin 10 mg/kg b.w.; compared to the group treated with doxorubicin alone
Method: (§1) The efficacy of the products of the invention for their newly discovered utility was established by experiments with three groups of male Sprague-Dawley rats (males, 150-200 grams, 16 per group). The rats were maintained on ad lib water and powdered rat chow (Purina) during the experiments. Group A was untreated, Group B was treated subcutaneously with doxorubicin alone on day 0, and Group C was treated with SnPP one day prior to doxorubicin which was administered on day 0.
(§2) The animals utilized in the tests were acclimated in metabolic cages maintained in a controlled environment with a 12h/12h light/dark cycle.
(§3) The compositions for parenteral administration were freshly prepared for each injection by addition of 0.4 N NaOH (20% v/v) to prepare a solution at pH 12, adjusted to pH 7.5 with 1 NHCl and made to final volume with 0.9% saline. The dosage level per injection was 50 µmol/kg b.w. Control animals were administered an equivalent amount of saline.
(§4) Animals were deprived of food but allowed free access to water for 16 hours prior to sacrifice. […] Cytochrome P-450 content was determined by the methods of Omura and Sato [J. Biol. Chem., 239: 2379 (1966) and 239: 2370 (1966)], and protein concentration by the method of Lowry et al [J. Biol. Chem., 193 265 (1951)] using crystalline bovine serum albumin as standard. […]

[2] = system: ALA synthetase; experiment: hepatic ALA synthetase activity in rats treated with doxorubicin, with or without SnPP; conditions: SnPP (50 µmol/kg b.w.) one day prior to doxorubicin 10 mg/kg b.w.; compared to the group treated with doxorubicin alone
Method: as §1, §2, §3, §4

[3] = system: microsomal heme; experiment: hepatic microsomal heme content in rats treated with doxorubicin, with or without SnPP
Method: as §1, §2, §3, §4

[4] = system: cytochrome P-450; experiment: hepatic microsomal cytochrome P-450 content in rats treated with doxorubicin, with or without SnPP
Method: as §1, §2, §3, §4

[5] = system: heme metabolism
Method: as §1
It will be seen that the increase in heme oxygenase activity and decrease in ALA synthetase activity and microsomal content of cytochrome P-450 were at a maximum on day 2 and returned to normal by day 10.
as §2, §3
Animals were deprived of food but allowed free access to water for 16 hours prior to sacrifice. Livers were perfused in situ with ice-cold saline and homogenized in tris-HCL (0.01 M, pH 7.4) buffer containing sucrose (0.25 M). Homogenates (25% w/v) were centrifuged at 9000 g for 20 min, and the resulting mitochondrial pellet was used for the assay of ALA-synthetase activity. The 9000 xg supernatant was centrifuged at 105,000 xg for 60 min in a Beckman L5-50 ultracentrifuge. The microsomal pellet was resuspended in a minimum volume of potassium phosphate buffer (0.1 M, pH 7.4) and the cytosol was used as a source of biliverdin reductase. Cytochrome P-450 content was determined by the methods of Omura and Sato [J. Biol. Chem., 239: 2379 (1966) and 239: 2370 (1966)], and protein concentration by the method of Lowry et al [J. Biol. Chem., 193 265 (1951)] using crystalline bovine serum albumin as standard. […]

[6] = SnPP one day prior to doxorubicin 10 mg/kg b.w., compared to the untreated group
[7] = doxorubicin 10 mg/kg b.w. subcutaneous, measured 2 days after administration, vs untreated, P < 0.05

| Molecule | decrease in hepatic heme oxygenase activity [1] [%] | increase in hepatic ALA-synthetase activity [2] [%] | levels of microsomal heme [3, 6] | levels of hepatic cytochrome P-450 [4, 6] | prevention of doxorubicin-induced variations in heme metabolism ([5]; metalloporphyrin administered one day prior to doxorubicin) | decrease in the microsomal content of heme [3, 7] [%] | decrease in the microsomal content of cytochrome P-450 [4, 7] [%] | time of maximum increase in heme oxygenase activity and decrease in ALA synthetase activity and microsomal content of cytochrome P-450 ([5]; rat, in vivo) [days] | time of return to normal of heme oxygenase activity, ALA synthetase activity and microsomal cytochrome P-450 ([5]; rat, in vivo) [days] |
| --- | --- | --- | --- | --- | --- | --- | --- | --- | --- |
| tin protoporphyrin-IX [SnPP] | 92 | 35 | substantially identical to those in the untreated group | substantially identical to those in the untreated group | prevented the occurrence of these variations in heme metabolism | – | – | – | – |
| COc1cccc2c1C(=O)c1c(O)c3c(c(O)c1C2=O)C[C@@](O)(C(=O)CO)C[C@@H]3O[C@H]1C[C@H](N)[C@H](O)[C@H](C)O1 [doxorubicin, reference compound] | – | – | – | – | – | 45 | 18 | 2 | ≤ 10 |
